# Patent publication US7985889B2, “AtMIN7 mediated disease resistance to Pseudomonas syringae in Arabidopsis” (priority 2007, dated 2011)
# Columns and labels:
# Test in all cases: Brefeldin A treatment of bacteria-infiltrated detached Arabidopsis leaves: bacterial multiplication and disease symptoms
# Format in all cases: in vivo
# Pst DC3000 ΔCEL mutant = tested on: Pst DC3000 ΔCEL mutant
# Method: (§1) A standard enumeration procedure involves pathogen inoculation, using any one of described methods, supra, followed by assaying bacterial populations present within host tissues at regular intervals. The population present within the tissue was calculated based on the dilution factor divided by the amount of tissue present in each sample. Plotting log (culturable bacterial number/cm^2 leaf tissue) against time (usually in days) after pathogen inoculation produced an unfitted curve, i.e. growth curve. For a review of methods, see, Katagiri et al., in The Arabidopsis Book, Somerville, Meyerowitz, Eds. (American Society of Plant Biologists, Rockville, Md., 2002), website://dx.doi.org/10.1199/tab.0039; herein incorporated by reference.
# (§2) Leaves were harvested and surface sterilized as follows: 1) whole leaves were removed from a host plant and gently mixed in a 70% ethanol solution for 1 minute. Leaves were blotted briefly on paper towels then rinsed in sterile distilled water for 1 minute, then blotted dry on paper towels. Leaf disks were excised from leaves with a 0.5 cm^2 or smaller cork borer, depending on the size of the sample leaves; 2) leaf disks from the leaves of 2 or more independent replicate plants were pooled for a single tissue sample and placed in a 1.5-mL microfuge tube with 100 μL sterile distilled water, the amount of leaf tissue per tube was recorded as leaf surface area. Three or more samples were harvested for each time point. Steps 1 and 2 were repeated for each sample; 3) Tissue samples were ground with a microfuge tube plastic pestle, by hand or by using a small hand-held electric drill. […] The number of serial dilutions necessary to get countable colonies were determined for each sample, however dilutions to 10^−7 were usually sufficient for any bacterial strain; 7) The samples were plated on the appropriate medium (e.g., Low salt Luria Bertani) supplemented with the necessary antibiotics to select for the specific inoculated bacterial strain. Plating was done in the traditional way (100 μL of a single sample was spread on a single plate) or several 10 μL aliquots of the 1:10 serial dilutions were spotted on to a single plate and allowed to dry onto the surface; and 8) Plates were placed at 30° C. for approximately 2 days with a cfu value determined for each dilution of each sample. […]
# (§3) Leaves were infiltrated with 1×10^6 cfu/ml of bacteria, detached, and placed in microtiter wells with petioles immersed in the 36 μM BFA (Sigma Co.) solution. […] Bacterial populations and disease symptoms were determined on day 0 and day three.
# Pst DC3000 = conditions: Col-0 gl1 plants treated with water or BFA
# Method: as §1, §2, §3
# hrcC mutant = conditions: Col-0 gl1 plants treated with water or BFA
# Method: as §1, §2, §3
smiles,measurement,setting,value
"C[C@H]1CCC/C=C/[C@@H]2C[C@H](O)C[C@H]2[C@H](O)/C=C/C(=O)O1 [BFA, Brefeldin A]",virulence (both multiplication and disease symptoms) of the Pst DC3000 ΔCEL mutant,"Pst DC3000 ΔCEL mutant; 36 μM BFA, wild-type Col-0 gl1 leaves infiltrated with 1×10^6 cfu/ml, day three, vs water",significantly enhanced
same,"restoration of the virulence of the Pst DC3000 ΔCEL mutant, BFA-treated leaves compared with AtMIN7 KO plants",Pst DC3000 ΔCEL mutant; BFA-treated leaves,greater than that in the AtMIN7 KO plants
same,multiplication or disease symptoms caused by Pst DC3000,Pst DC3000,no significant differences
same,multiplication or disease symptoms caused by the hrcC mutant,hrcC mutant,no significant differences
